Source: patent publication US20110151484A1, “hERG MUTANTS AND USES THEREOF” (priority 2008, published 2011)
Where two headings read alike, the source gives them in different places.

Assays:
N588E-hERG = N588E-hERG (Homo sapiens, UniProt Q12809, N588E)
Procedure: (§1) CHO cells were cultured in D-ME/F12 with 10% FBS and maintained at 37° C. in 5% CO2. Cells were studied at least 24 h after being plated on microscope coverslips. Mutant hERG constructs were generated using the Megaprimer PCR method. […] Blank CHO cells were plated onto sterilised glass coverslips. After 24 h, the cells were transfected with mutant hERG constructs using PolyFect Transfection Reagent (Qiagen) according to the manufacturer's instructions. After transfection, the cells were incubated at 37° C. for a minimum of 1 day prior to electrophysiological study. Successfully transfected cells, identified by the expression of eGFP, were studied using the whole-cell configuration of the patch clamp technique.
(§2) Borosilicate glass tubing patch pipettes, with resistances of 1-4 MΩ when filled with internal solution, were made using a vertical 2-stage puller (PP-830; Narishige, Japan). The internal solution contained (in mM) 120 potassium gluconate, 20 KCl, 1.5 MgATP, 5 EGTA and 10 HEPES (pH 7.3 with KOH). […] Currents were amplified (Axopatch 200B amplifier; Molecular Devices, Sunnyvale, Calif.) and digitised (DigiData 1200; Molecular Devices) before storage on a personal computer. Capacitance current transients were electronically subtracted, and series resistance compensation was ˜80% for all experiments. Current signals were digitised at 5 kHz and low-pass filtered at 2 KHz. Some current traces were leak-subtracted off-line. Acquisition was performed using pClamp software.
(§3) Currents were measured with a two-step voltage protocol; a first step to +20 mV for 3 seconds to fully activate the channels and a second step to a negative membrane potential, usually −110 mV (but see below for variations). During this second voltage step hERG channels quickly recover from inactivation and proceed to deactivate.
(§4) Drug block was calculated as I[drug]/Icontrol, with all currents measured at the end of the activating step. […] In this way current was measured at the same time point for all cells.
(§5) Voltage-protocols were repeated at 0.1 Hz. Control currents were recorded 3-5 minutes after patch rupture, i.e. the time take for current levels to stabilise at a steady state level. […] Recording continued until a new steady state block was reached (typically 2-4 minutes). Between 2 and 4 doses of drug were applied to each cell with most experiments completed within 20 minutes.
(§6) Initial data analysis was performed using the Clampfit module of the pClamp 9.0 software. Subsequent data analysis and preparation of data for figures were performed with Mathematica 6 (Wolfram Technologies). All data are expressed as mean ±SEM (n) and statistical significance (P<0.05) was determined using paired t-tests.

WT-hERG = WT-hERG (Homo sapiens, UniProt Q12809)
Procedure: as §1, §2, §3, §4, §5, §6

N588K-hERG = N588K-hERG (Homo sapiens, UniProt Q12809, N588K)
Procedure: Currents were measured with a two-step voltage protocol; a first step to +20 mV for 3 seconds to fully activate the channels and a second step to a negative membrane potential, usually −110 mV (but see below for variations). […]

Structure (SMILES)	IC50 (N588E-hERG)	h (Hill plot), N588E (N588E-hERG)	IC50 (WT-hERG)	h (Hill plot), WT-hERG (WT-hERG)	IC50 (N588K-hERG)	h (Hill plot), N588E (N588E-hERG; human)	h (Hill plot), WT-hERG (WT-hERG; human)
CC(C)NCC(O)c1ccc(NS(C)(=O)=O)cc1 (racemic) [dl-Sotalol]	586 ± 179 µM	h = 0.8	516 ± 35.5 µM	h = 0.9	1390 ± 266 µM		
C1CCC(C(CC2CCCCN2)C2CCCCC2)CC1 (stereo not drawn) [Perhexiline]						h = 0.8	h = 1.1
COc1cc(N)c(Cl)cc1C(=O)NC1CCN(CCCOc2ccc(F)cc2)CC1OC (stereo not drawn) [Cisapride]						h = 0.8	h = 1.0
